Patent US20110230472A1, “RING-FUSED AZOLE DERIVATIVE HAVING PI3K-INHIBITING ACTIVITY” (Shionogi & Co., Ltd., priority 2008, published 2011)

Tests used:
[1] = system: AKT phosphorylation in human monocyte-like cell line THP-1; experiment: AKT phosphorylation inhibitory activity in MCP-1-stimulated THP-1 cells (ELISA); assay type: cell-based; settings: 1 μmol/L solution of each compound, MCP-1 stimulation, read-out: AKT phosphorylation inhibition ratio
Procedure: (1) The AKT phosphorylation inhibitory activity of a compound was evaluated according to the following procedure. (2) Human monocyte-like cell line THP-1 was washed with RPMI-1640 media, incubated in the presence of 5% CO2 at 37° C. for 3 hours, washed with Hank's balanced salt solution (HBSS), adjusted to a cell concentration of 6.6×10^6/mL, and then used in an experiment. (3) 30 μL of the cell suspension and 60 μL of each compound solution containing 0.2% DMSO/HBSS were mixed and then preincubated at 37° C. for 5 minutes. 30 μL of HBSS containing 4 μg/mL of MCP-1 was added thereto and then incubated for 30 seconds at 37° C. (4) 30 μl of a cell lysate (20 mmol/L Tris-HCl (pH 7.5), 150 mmol/L NaCl, 1 mmol/L Na2EDTA, 1 mmol/L EGTA, 1% Triton, 2.5 mmol/L sodium pyrophosphate, 1 mmol/L β-glycerophosphate, 1 mmol/L Na3VO4, 1 μg/ml leupeptin, 50 nmol/L APMSF) was added thereto to lyse cells. (5) The amount of AKT phosphorylation in the cell lysate was measured by ELISA method. (6) Anti-phospho-Akt (Ser473) antibodies (clone 193H12, derived from a rabbit) were immobilized onto the solid phase of a micro well plate. 100 μL of the prepared cell lysate was added to the micro well plate, incubated for 2 hours at 37° C., and then washed four times with Phosphate Buffered Saline containing 0.05% Tween-20. (7) An anti-AKT1 antibody (clone 2H10, derived from a mouse) was added thereto, incubated for 1 hour at 37° C., washed similarly, and then reacted with an HRP-labeled anti-mouse IgG antibody. (8) After incubating at 37° C. for 30 minutes and then washing similarly, 100 μL of TMB (3,3′,5,5″-tetramethylbenzidine) was added thereto, followed by reacting at room temperature for 30 minutes. (9) 100 μL of 1 mol/L sulfuric acid was added to quench the color reaction and then the absorbance at 450 nm was measured. (10) A series of diluted cell lysates of a positive control (a sample in the absence of a compound) were used to prepare a calibration curve, the amount of AKT phosphorylation in a sample in the absence of MCP-1 was defined as 0% activity to calculate an inhibition ratio. The measurement was performed for a 1 μmol/L solution of each compound.

Solubility test = assay type: physicochemical; settings: kinetic from dmso stock; artificial intestinal juice pH 6.8, 1% DMSO, 25° C. for 16 hours
Procedure: The solubility of a compound was determined under a condition in which 1% DMSO was added. 10 mmol/L compound solution was prepared using DMSO, and then 6 μL of the compound solution was added to 594 μL of artificial intestinal juice in pH 6.8 (to 250 mL of 0.2 mol/L potassium dihydrogen phosphate reagent solution was added 118 mL of 0.2 mol/L NaOH reagent solution and water to provide a final volume of 1000 mL). After standing at 25° C. for 16 hours, the mixed solution was filtered with suction. The filtrate was diluted twice with methanol/water (1/1), and then a concentration in the filtration was measured with HPLC or LC/MS/MS by the absolute calibration method.

PI-3 kinase γ = PI-3 kinase γ (Homo sapiens, UniProt P48736); experiment: PI3Kγ inhibitory activity, PI3-kinase HTRF assay (inhibition ratio); assay type: biochemical; settings: 0.5 h; for inhibition at 50 µM: compound at 50 μM
Chain of PI-3 kinase γ (P48736 whole entry): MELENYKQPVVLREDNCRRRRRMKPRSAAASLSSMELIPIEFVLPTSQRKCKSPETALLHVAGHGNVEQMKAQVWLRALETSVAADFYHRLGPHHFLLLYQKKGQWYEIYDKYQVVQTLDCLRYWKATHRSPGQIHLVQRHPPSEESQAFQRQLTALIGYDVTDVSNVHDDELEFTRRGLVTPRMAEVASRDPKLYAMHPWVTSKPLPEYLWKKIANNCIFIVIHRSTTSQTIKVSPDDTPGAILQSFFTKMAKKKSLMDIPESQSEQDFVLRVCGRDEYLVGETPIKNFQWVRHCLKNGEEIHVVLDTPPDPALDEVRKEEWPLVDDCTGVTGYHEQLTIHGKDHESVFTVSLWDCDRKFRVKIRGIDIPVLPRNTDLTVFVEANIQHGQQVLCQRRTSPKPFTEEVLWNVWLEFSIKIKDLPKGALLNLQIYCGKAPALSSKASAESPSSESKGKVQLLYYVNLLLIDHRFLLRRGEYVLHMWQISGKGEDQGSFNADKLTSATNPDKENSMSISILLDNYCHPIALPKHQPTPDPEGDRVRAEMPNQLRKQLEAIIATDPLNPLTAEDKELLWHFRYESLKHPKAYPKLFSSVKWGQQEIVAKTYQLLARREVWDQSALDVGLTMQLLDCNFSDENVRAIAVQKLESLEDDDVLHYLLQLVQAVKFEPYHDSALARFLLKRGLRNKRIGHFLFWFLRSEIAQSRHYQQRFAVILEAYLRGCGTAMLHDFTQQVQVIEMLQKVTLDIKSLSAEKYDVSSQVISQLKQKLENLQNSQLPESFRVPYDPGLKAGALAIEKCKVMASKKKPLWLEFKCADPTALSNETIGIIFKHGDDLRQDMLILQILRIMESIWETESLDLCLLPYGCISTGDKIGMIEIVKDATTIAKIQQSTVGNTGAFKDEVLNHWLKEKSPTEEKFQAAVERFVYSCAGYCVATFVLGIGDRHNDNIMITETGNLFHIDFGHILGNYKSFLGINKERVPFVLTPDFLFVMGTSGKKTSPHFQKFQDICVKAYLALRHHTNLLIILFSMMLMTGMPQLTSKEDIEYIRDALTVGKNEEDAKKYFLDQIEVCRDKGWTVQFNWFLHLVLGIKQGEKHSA
Procedure, shortened: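 Single-concentration inhibition ratio (50 or 10 μmol/L compound) versus no-compound (100%) and no-enzyme (0%) wells. Reaction: PI-3 kinase γ, PIP2, ATP, MgCl2/DTT, 30 min at RT after 10 min preincubation. Read-out: HTRF 665/620 nm after 18 h detection.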

Metabolic stability test = assay type: in vitro ADME; settings: human liver microsome 0.5 mg protein/mL, 1 mmol/L NADPH, 37° C.
Procedure: After a subject compound was reacted for a certain time using a pooled human liver microsome commercially available, a reacted sample and an unreacted sample are compared to calculate a survival ratio, and then the degree of metabolism in the liver was evaluated.
0.2 mL of a buffer solution (50 mmol/L of Tris-HCl in pH 7.4, 150 mmol/L of potassium chloride, and 10 mmol/L of magnesium chloride) containing a human liver microsome of 0.5 mg protein/mL was reacted in the presence of 1 mmol/L NADPH at 37° C. for 0 or 30 minutes (oxidative reaction). After reacting, 50 μL of the reaction solution was added to 100 μL of a solution of methanol/acetonitrile (1/1 (v/v)), mixed, and then centrifuged at 3000 rpm for 15 minutes. The test compound in the supernatant was quantitated with LC/MS/MS. The amount of the compound at a reaction time of 0 minute was defined as 100% and, based on that, the percentage of the test compound remained after reacting for 30 minutes was calculated.

CYP1A2 = target: T1, CYP1A2 (Homo sapiens, UniProt P05177); experiment: CYP inhibition test, pooled human liver microsome, CYP1A2; assay type: in vitro ADME; settings: O-de-ethylation of 7-ethoxyresorufin
T1 construct: enzyme: pooled human liver microsome 0.2 mg protein/mL; from tissue; host or cells: pooled human liver microsome
T1 sequence (P05177 1-516): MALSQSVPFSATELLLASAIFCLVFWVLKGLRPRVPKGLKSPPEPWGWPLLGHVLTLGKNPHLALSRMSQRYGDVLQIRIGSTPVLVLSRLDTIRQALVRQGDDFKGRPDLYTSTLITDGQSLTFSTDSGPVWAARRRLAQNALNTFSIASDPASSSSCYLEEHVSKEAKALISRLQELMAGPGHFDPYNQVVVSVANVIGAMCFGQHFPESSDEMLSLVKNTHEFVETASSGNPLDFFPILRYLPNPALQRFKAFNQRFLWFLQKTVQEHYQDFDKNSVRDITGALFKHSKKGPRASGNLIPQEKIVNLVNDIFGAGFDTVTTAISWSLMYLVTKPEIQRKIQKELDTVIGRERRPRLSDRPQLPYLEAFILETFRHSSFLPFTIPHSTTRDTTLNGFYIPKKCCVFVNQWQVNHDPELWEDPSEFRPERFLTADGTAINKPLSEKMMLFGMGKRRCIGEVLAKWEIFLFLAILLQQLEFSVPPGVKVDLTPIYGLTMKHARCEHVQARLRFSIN
Description: (§1) O-de-ethylation of 7-ethoxyresorufin (CYP1A2), methyl-hydroxylation of tolbutamide (CYP2C9), 4′-hydroxylation of mephenyloin (CYP2C19), O-demethylation of dextromethorphan (CYP2D6), and hydroxylation of terfenadine (CYP3A4), which are typical substrate for metabolic reactions of human main CYP5 molecular species (CYP1A2, 2C9, 2C19, 2D6, and 3A4), were adopted as indexes.
(§2) The reaction conditions are as follows: substrate: 0.5 μmol/L of ethoxyresorufin (CYP1A2), 100 μmol/L of tolbutamide (CYP2C9), […] of S-mephenyloin (CYP2C19), 5 μmol/L of dextromethorphan (CYP2D6), and 1 μmol/L of terfenadine (CYP3A4); reaction time; 15 minutes; reaction temperature: 37° C.; enzyme: pooled human liver microsome 0.2 mg protein/mL; test drug concentration: 1, 5, 10, and 20 μmol/L (4 points).
(§3) In a 96-well plate, as a reaction solution, five kinds of substrates, a human liver microsome, and a test drug were added to 50 mmol/L Hepes buffer solution in the aforementioned ratio. A coenzyme NADPH was added to start a metabolic reaction, which is an index. After reacting at 37° C. for 15 minutes, a solution of methanol/acetonitrile (1/1 (v/v)) was added to quench the reaction. After centrifugation at 3000 rpm for 15 minutes, resorufin (CYP1A2 metabolite) in the supernatant was quantitated with a fluorescence multilabel counter, and hydroxylated tolbutamide (CYP2C9 metabolite), 4′-hydroxylated mephenyloin (CYP2C19 metabolite), […], terfenadine in alcohol form (CYP3A4 metabolite) were quantitated with LC/MS/MS.
(§4) The case wherein only DMSO (a solvent which dissolved a drug) was added to a reaction system was defined as a control (100%). When a test drug solution was added, the remaining activity (%) at each concentration was calculated, and then IC50 was calculated with a concentration and an inhibition ratio by an inverse estimation using a logistic model.

CYP2C19 = target: T2, CYP2C19 (Homo sapiens, UniProt P33261); experiment: CYP inhibition test, pooled human liver microsome, CYP2C19; assay type: in vitro ADME; settings: 4′-hydroxylation of mephenyloin
T2 construct: enzyme: pooled human liver microsome 0.2 mg protein/mL; from tissue; host or cells: pooled human liver microsome
T2 sequence (P33261 whole entry): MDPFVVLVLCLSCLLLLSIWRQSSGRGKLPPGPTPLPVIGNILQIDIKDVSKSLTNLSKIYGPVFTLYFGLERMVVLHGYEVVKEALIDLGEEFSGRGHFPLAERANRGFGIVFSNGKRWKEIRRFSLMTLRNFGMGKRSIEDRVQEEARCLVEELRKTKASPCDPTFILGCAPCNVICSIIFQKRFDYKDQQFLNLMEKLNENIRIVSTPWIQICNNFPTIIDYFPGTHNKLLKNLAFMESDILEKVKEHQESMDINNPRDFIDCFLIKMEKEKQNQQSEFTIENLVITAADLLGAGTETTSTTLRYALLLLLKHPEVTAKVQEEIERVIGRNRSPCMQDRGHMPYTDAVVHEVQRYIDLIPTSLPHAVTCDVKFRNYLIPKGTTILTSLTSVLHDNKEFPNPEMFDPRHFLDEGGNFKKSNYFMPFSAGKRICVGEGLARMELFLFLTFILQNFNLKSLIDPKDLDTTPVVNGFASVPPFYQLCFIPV
Description: as §1, §2, §3, §4

CYP3A4 = target: T3, CYP3A4 (Homo sapiens, UniProt P08684); experiment: CYP inhibition test, pooled human liver microsome, CYP3A4; assay type: in vitro ADME; settings: hydroxylation of terfenadine
T3 construct: enzyme: pooled human liver microsome 0.2 mg protein/mL; from tissue; host or cells: pooled human liver microsome
T3 sequence (P08684 whole entry): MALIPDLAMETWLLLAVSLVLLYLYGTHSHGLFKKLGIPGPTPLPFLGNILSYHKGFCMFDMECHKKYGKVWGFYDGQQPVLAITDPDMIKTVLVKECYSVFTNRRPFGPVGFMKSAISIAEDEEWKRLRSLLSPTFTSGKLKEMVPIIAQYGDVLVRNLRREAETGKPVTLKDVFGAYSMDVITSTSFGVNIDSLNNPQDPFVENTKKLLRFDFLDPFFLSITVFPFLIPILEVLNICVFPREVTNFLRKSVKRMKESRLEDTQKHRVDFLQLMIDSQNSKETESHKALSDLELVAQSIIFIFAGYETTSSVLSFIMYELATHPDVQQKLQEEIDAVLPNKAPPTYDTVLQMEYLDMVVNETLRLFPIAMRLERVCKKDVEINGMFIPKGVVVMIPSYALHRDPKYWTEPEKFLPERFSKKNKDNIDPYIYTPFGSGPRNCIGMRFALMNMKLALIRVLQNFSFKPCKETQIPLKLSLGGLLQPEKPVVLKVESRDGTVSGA
Description: as §1, §2, §3, §4

CYP2D6 = target: T4, CYP2D6 (Homo sapiens, UniProt P10635); experiment: CYP inhibition test, pooled human liver microsome, CYP2D6; assay type: in vitro ADME; settings: O-demethylation of dextromethorphan
T4 construct: enzyme: pooled human liver microsome 0.2 mg protein/mL; from tissue; host or cells: pooled human liver microsome
T4 sequence (P10635 whole entry): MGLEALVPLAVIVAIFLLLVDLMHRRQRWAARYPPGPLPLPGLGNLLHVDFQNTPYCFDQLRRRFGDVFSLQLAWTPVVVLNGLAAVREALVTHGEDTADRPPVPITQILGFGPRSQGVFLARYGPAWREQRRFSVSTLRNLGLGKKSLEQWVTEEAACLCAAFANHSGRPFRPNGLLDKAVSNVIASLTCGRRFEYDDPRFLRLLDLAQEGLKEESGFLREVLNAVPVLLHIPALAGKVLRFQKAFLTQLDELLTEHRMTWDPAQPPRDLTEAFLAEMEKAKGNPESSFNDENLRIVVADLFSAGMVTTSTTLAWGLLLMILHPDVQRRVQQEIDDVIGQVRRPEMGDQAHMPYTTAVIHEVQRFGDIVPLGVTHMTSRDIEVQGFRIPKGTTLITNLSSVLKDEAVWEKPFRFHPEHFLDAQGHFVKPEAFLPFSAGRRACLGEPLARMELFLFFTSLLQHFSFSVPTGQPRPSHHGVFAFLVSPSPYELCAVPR
Description: as §1, §2, §3, §4

CYP2C9 = target: T5, CYP2C9 (Homo sapiens, UniProt P11712); experiment: CYP inhibition test, pooled human liver microsome, CYP2C9; assay type: in vitro ADME; settings: methyl-hydroxylation of tolbutamide
T5 construct: enzyme: pooled human liver microsome 0.2 mg protein/mL; from tissue; host or cells: pooled human liver microsome
T5 sequence (P11712 whole entry): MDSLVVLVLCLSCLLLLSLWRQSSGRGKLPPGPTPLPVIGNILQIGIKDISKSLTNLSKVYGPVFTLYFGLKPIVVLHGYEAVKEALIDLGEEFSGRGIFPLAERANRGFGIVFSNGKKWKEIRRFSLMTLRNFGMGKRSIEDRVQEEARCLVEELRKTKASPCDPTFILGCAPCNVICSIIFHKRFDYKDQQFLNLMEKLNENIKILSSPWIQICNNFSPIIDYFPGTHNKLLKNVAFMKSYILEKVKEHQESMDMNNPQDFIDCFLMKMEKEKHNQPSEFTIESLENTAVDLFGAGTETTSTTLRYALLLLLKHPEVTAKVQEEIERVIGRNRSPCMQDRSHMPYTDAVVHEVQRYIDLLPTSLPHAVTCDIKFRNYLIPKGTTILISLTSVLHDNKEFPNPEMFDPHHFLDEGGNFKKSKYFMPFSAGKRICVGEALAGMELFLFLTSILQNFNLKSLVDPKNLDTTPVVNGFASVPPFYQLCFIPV
Description: as §1, §2, §3, §4
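Wherever percentage of the test compound remained after reacting for 30 minutes is given: 100% equals the compound amount at 0 min reaction.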

Row | SMILES | inhibition [1] | solubility at 16 h (Solubility test) | inhibition at 10 µM (PI-3 kinase γ; compound at 10 μmol/L) | percentage of the test compound remained after reacting for 30 minutes (Metabolic stability test) | IC50 (CYP1A2) | IC50 (CYP2C19) | IC50 (CYP3A4) | IC50 (CYP2D6) | IC50 (CYP2C9) | inhibition at 10 µM (PI-3 kinase γ; PI3Kγ, compound at 10 μM) | inhibition at 50 µM (PI-3 kinase γ; PI3Kγ)
1 | CN1CCc2cc(N3CCn4nc(NC(=O)c5cncs5)cc43)ccc2C1=O [Compound I-341] | 97.8% | > 50 µM | ≥ 95% | – | – | – | – | – | – | – | –
2 | CN1CCc2cc(N3CCn4nc(NC(=O)c5cccs5)cc43)ccc2C1=O [Compound I-331] | 93% | – | 84% | – | – | – | – | – | – | – | –
3 | CC(C)NC(=O)c1ccc(C(=O)Nc2cc3n(n2)CCN3c2ccc3c(c2)CCN(C)C3=O)s1 [Compound I-407] | – | – | ≥ 95% | 92.9% | > 20 µM | > 20 µM | > 20 µM | > 20 µM | > 20 µM | – | –
4 | COc1cc(N2CCc3nc(NC(=O)NCCC(=O)N4CCC[C@H]4C(=O)O)sc3C2)nc(OC)n1 [Compound I-276] | – | > 50 µM | – | 90.1% | > 20 µM | > 20 µM | > 20 µM | > 20 µM | > 20 µM | ≥ 95% | –
5 | CC(=O)Nc1cc2n(n1)CCN2c1cccc(Cl)c1 [Compound I-198] | 97.3% | > 50 µM | – | – | – | – | – | – | – | – | 94%
6 | CNC(=O)Nc1cc2n(n1)CCN2c1cc(Br)cc(C(=O)Nc2cccc(C(=O)O)c2)c1 [Compound I-187] | – | > 50 µM | – | 98.9% | > 20 µM | > 20 µM | > 20 µM | > 20 µM | > 20 µM | – | 94%
7 | CN1CCc2cc(N3CCn4nc(NC(=O)c5ccc(C(=O)NCC#N)s5)cc43)ccc2C1=O [Compound I-409] | – | – | ≥ 95% | 92.2% | > 20 µM | > 20 µM | > 20 µM | > 20 µM | > 20 µM | – | –
8 | CN1CCc2cc(N3CCn4nc(NC(=O)c5cc(O)no5)cc43)ccc2C1=O [Compound I-397] | – | > 50 µM | ≥ 95% | 96.7% | > 20 µM | > 20 µM | > 20 µM | > 20 µM | > 20 µM | – | –
